From the CheMixHub viscosity set
Several values for one entry are separate records, joined by “and”; a condition that tells them apart may be missing. Equal entries are not always repeated.

Experiment: xn = mol fraction of the nth substance listed

C1C[C@@H]2[C@H]3CC[C@H](C3)[C@@H]2C1 + c1ccc2c(c1)CCCC2
viscosity [mPa·s], 100 kPa
Settings	x1 = 0.1003	x1 = 0.1991	x1 = 0.3022	x1 = 0.407	x1 = 0.4996	x1 = 0.5992	x1 = 0.7019	x1 = 0.7987	x1 = 0.8983
293.15 K	2.201	2.214	2.254	2.299	2.355	2.438	2.543	2.668	2.807
298.15 K	1.994	2.008	2.043	2.088	2.139	2.214	2.307	2.416	2.546
303.15 K	1.816	1.831	1.864	1.904	1.952	2.019	2.106	2.202	2.319
308.15 K	1.664	1.678	1.708	1.746	1.79	1.851	1.929	2.018	2.122
313.15 K	1.531	1.545	1.574	1.608	1.648	1.704	1.775	1.855	1.95
318.15 K	1.414	1.428	1.454	1.486	1.523	1.574	1.639	1.712	1.798
323.15 K	1.311	1.325	1.349	1.379	1.413	1.459	1.519	1.586	1.663

CCC(=O)O + c1ccccc1
101.33 kPa
Settings	viscosity
293.15 K, x1 = 0.2	0.66 mPa·s and 0.66 mPa·s
293.15 K, x1 = 0.4	0.7 mPa·s
293.15 K, x1 = 0.5	0.734 mPa·s and 0.734 mPa·s
293.15 K, x1 = 0.8	0.889 mPa·s
303.15 K, x1 = 0.2	0.575 mPa·s
303.15 K, x1 = 0.4	0.61 mPa·s
303.15 K, x1 = 0.5	0.639 mPa·s
303.15 K, x1 = 0.8	0.774 mPa·s
308.15 K, x1 = 0.0534	0.5535 mPa·s
308.15 K, x1 = 0.1063	0.5551 mPa·s
308.15 K, x1 = 0.1575	0.5617 mPa·s
308.15 K, x1 = 0.2	0.542 mPa·s and 0.542 mPa·s
308.15 K, x1 = 0.2079	0.5677 mPa·s
308.15 K, x1 = 0.3318	0.5849 mPa·s
308.15 K, x1 = 0.4	0.575 mPa·s
308.15 K, x1 = 0.4118	0.5998 mPa·s
308.15 K, x1 = 0.5	0.602 mPa·s and 0.602 mPa·s
308.15 K, x1 = 0.5132	0.6282 mPa·s
308.15 K, x1 = 0.6132	0.6564 mPa·s
308.15 K, x1 = 0.7107	0.7012 mPa·s
308.15 K, x1 = 0.8	0.729 mPa·s
308.15 K, x1 = 0.8085	0.7408 mPa·s
308.15 K, x1 = 0.8566	0.7662 mPa·s
308.15 K, x1 = 0.9045	0.8033 mPa·s
308.15 K, x1 = 0.9524	0.8347 mPa·s
318.15 K, x1 = 0.2	0.48 mPa·s
318.15 K, x1 = 0.4	0.51 mPa·s
318.15 K, x1 = 0.5	0.533 mPa·s
318.15 K, x1 = 0.8	0.643 mPa·s

CCCOC(=O)CC + c1ccccc1
298.15 K, 101.33 kPa
Settings	viscosity [mPa·s]
x1 = 0.1478	0.583
x1 = 0.2542	0.583
x1 = 0.3452	0.586
x1 = 0.4049	0.588
x1 = 0.616	0.604
x1 = 0.7421	0.616
x1 = 0.8096	0.622
x1 = 0.878	0.63
x1 = 0.9369	0.635

CCC(=O)O + c1ccncc1
298.15 K, 101 kPa
Settings	viscosity [mPa·s]
x1 = 0.0999	1
x1 = 0.1959	1.135
x1 = 0.2826	1.311
x1 = 0.3927	1.587
x1 = 0.5016	1.943
x1 = 0.6401	2.388
x1 = 0.7118	2.48
x1 = 0.7972	2.353
x1 = 0.8994	1.755
